Measured values from ChEMBL document CHEMBL1141945, “Synthesis and biological evaluation of novel (L)-alpha-amino acid methyl ester, heteroalkyl, and aryl substituted 1,4-naphthoquinone derivatives as antifungal and antibacterial agents” (2005).
Values after ≈ are worked out from the molar mass of the structure shown.

Legend:
Pseudomonas aeruginosa = test: Antibacterial activity against Pseudomonas aeruginosa; assay type: functional
Klebsiella pneumoniae = test: Antibacterial activity against Klebsiella pneumoniae; assay type: functional
Staphylococcus aureus = test: Antibacterial activity against Staphylococcus aureus; assay type: functional
Trichophyton benhamiae = test: Antifungal activity against Trichophyton mentagrophytes; assay type: functional, Arthroderma benhamiae
Aspergillus fumigatus = test: Antifungal activity against Aspergillus fumigatus; assay type: functional
Enterococcus faecalis = test: Antibacterial activity against Streptococcus faecalis; assay type: functional
Cryptococcus neoformans = test: Antifungal activity against Cryptococcus neoformans; assay type: functional
Sporothrix schenckii = test: Antifungal activity against Sporothrix schenckii; assay type: functional
Escherichia coli = test: Antibacterial activity against Escherichia coli; assay type: functional
Candida parapsilosis = test: Antifungal activity against Candida parapsilosis; assay type: functional; settings: Lodderomyces parapsilosis, ATCC 22019
Candida albicans = test: Antifungal activity against Candida albicans; assay type: functional

COC(=O)C(CCSC)/N=C1\C=C(O)c2ccccc2C1=O (centres undefined)
MIC (Pseudomonas aeruginosa): > 50 mg/L | MIC (Klebsiella pneumoniae): 6.25 mg/L (≈ 19.6 µM) | MIC (Staphylococcus aureus): > 50 mg/L | MIC (Trichophyton benhamiae): > 50 mg/L | MIC (Aspergillus fumigatus): > 50 mg/L | MIC (Enterococcus faecalis): 12.5 mg/L (≈ 39.1 µM) | MIC (Cryptococcus neoformans): 25 mg/L (≈ 78.3 µM) | MIC (Sporothrix schenckii): > 50 mg/L | MIC (Escherichia coli): > 50 mg/L | MIC (Candida parapsilosis): > 50 mg/L | MIC (Candida albicans): > 50 mg/L

Clc1ccc(COC(Cn2ccnc2)c2ccc(Cl)cc2Cl)c(Cl)c1 (centres undefined) [MICONAZOLE]
MIC (Trichophyton benhamiae): < 0.78 mg/L | MIC (Aspergillus fumigatus): 12.5 mg/L (≈ 30 µM) | MIC (Cryptococcus neoformans): 12.5 mg/L (≈ 30 µM) | MIC (Candida albicans): 25 mg/L (≈ 60.1 µM)

COC(=O)C/N=C1/C(=O)c2ccccc2C(O)=C1O
MIC (Pseudomonas aeruginosa): 50 mg/L (≈ 191 µM) | MIC (Klebsiella pneumoniae): > 50 mg/L | MIC (Staphylococcus aureus): 50 mg/L (≈ 191 µM) | MIC (Enterococcus faecalis): 50 mg/L (≈ 191 µM) | MIC (Escherichia coli): 50 mg/L (≈ 191 µM)

C[C@@H]1[C@H](O)[C@@H](C)/C=C/C=C/C=C/C=C/C=C/C=C/C=C/[C@H](O[C@@H]2O[C@H](C)[C@@H](O)[C@H](N)[C@@H]2O)C[C@@H]2O[C@](O)(C[C@@H](O)C[C@@H](O)[C@H](O)CC[C@@H](O)C[C@@H](O)CC(=O)O[C@H]1C)C[C@H](O)[C@H]2C(=O)O [AMPHOTERICIN B]
MIC (Trichophyton benhamiae): 1.56 mg/L (≈ 1.69 µM) | MIC (Cryptococcus neoformans): 0.78 mg/L (≈ 0.844 µM) | MIC (Candida albicans): 0.39 mg/L (≈ 0.422 µM)

COC(=O)C(C)/N=C1/C(=O)c2ccccc2C(O)=C1O (centres undefined)
MIC (Trichophyton benhamiae): > 50 mg/L | MIC (Aspergillus fumigatus): > 50 mg/L | MIC (Cryptococcus neoformans): 25 mg/L (≈ 90.8 µM) | MIC (Sporothrix schenckii): > 50 mg/L | MIC (Candida parapsilosis): 50 mg/L (≈ 182 µM) | MIC (Candida albicans): > 50 mg/L

GENTAMICIN
MIC (Pseudomonas aeruginosa): 0.78 mg/L | MIC (Klebsiella pneumoniae): 0.39 mg/L | MIC (Staphylococcus aureus): 0.78 mg/L

COC(=O)C/N=C1\C=C(O)c2ccccc2C1=O
MIC (Trichophyton benhamiae): > 50 mg/L | MIC (Aspergillus fumigatus): 25 mg/L (≈ 102 µM) | MIC (Cryptococcus neoformans): 50 mg/L (≈ 204 µM) | MIC (Sporothrix schenckii): 50 mg/L (≈ 204 µM) | MIC (Candida parapsilosis): 50 mg/L (≈ 204 µM) | MIC (Candida albicans): 50 mg/L (≈ 204 µM)

NCC[C@H](O)C(=O)N[C@@H]1C[C@H](N)[C@@H](O[C@H]2O[C@H](CN)[C@@H](O)[C@H](O)[C@H]2O)[C@H](O)[C@H]1O[C@H]1O[C@H](CO)[C@@H](O)[C@H](N)[C@H]1O [AMIKACIN]
MIC (Pseudomonas aeruginosa): 2 mg/L (≈ 3.42 µM) | MIC (Klebsiella pneumoniae): 1 mg/L (≈ 1.71 µM) | MIC (Staphylococcus aureus): 16 mg/L (≈ 27.3 µM) | MIC (Enterococcus faecalis): > 64 mg/L | MIC (Escherichia coli): 1 mg/L (≈ 1.71 µM)

O=C1c2sc3nccn3c2C(=O)c2c(O)ccc(O)c21
MIC (Pseudomonas aeruginosa): > 50 mg/L | MIC (Klebsiella pneumoniae): > 50 mg/L | MIC (Staphylococcus aureus): 50 mg/L (≈ 175 µM) | MIC (Trichophyton benhamiae): 25 mg/L (≈ 87.3 µM) | MIC (Aspergillus fumigatus): > 50 mg/L | MIC (Enterococcus faecalis): 25 mg/L (≈ 87.3 µM) | MIC (Cryptococcus neoformans): < 12.5 mg/L | MIC (Sporothrix schenckii): < 12.5 mg/L | MIC (Escherichia coli): 50 mg/L (≈ 175 µM) | MIC (Candida albicans): 25 mg/L (≈ 87.3 µM)

O=C1c2ccccc2C(=O)c2c1sc1nccn21
MIC (Pseudomonas aeruginosa): > 50 mg/L | MIC (Klebsiella pneumoniae): > 50 mg/L | MIC (Staphylococcus aureus): 50 mg/L (≈ 197 µM) | MIC (Trichophyton benhamiae): 25 mg/L (≈ 98.3 µM) | MIC (Aspergillus fumigatus): 25 mg/L (≈ 98.3 µM) | MIC (Enterococcus faecalis): 25 mg/L (≈ 98.3 µM) | MIC (Cryptococcus neoformans): 12.5 mg/L (≈ 49.2 µM) | MIC (Sporothrix schenckii): 25 mg/L (≈ 98.3 µM) | MIC (Escherichia coli): 50 mg/L (≈ 197 µM) | MIC (Candida albicans): 50 mg/L (≈ 197 µM)

NC[C@H]1O[C@H](O[C@H]2[C@H](O)[C@@H](O[C@H]3O[C@H](CO)[C@@H](O)[C@H](N)[C@H]3O)[C@H](N)C[C@@H]2N)[C@H](O)[C@@H](O)[C@@H]1O [KANAMYCIN]
MIC90 (Pseudomonas aeruginosa): > 128 mg/L | MIC90 (Klebsiella pneumoniae): 32 mg/L (≈ 66 µM) | MIC90 (Staphylococcus aureus): 2 mg/L (≈ 4.13 µM) | MIC90 (Escherichia coli): 16 mg/L (≈ 33 µM)

COC(=O)C(CC(C)C)/N=C1\C=C(O)c2ccccc2C1=O (centres undefined)
MIC (Pseudomonas aeruginosa): > 50 mg/L | MIC (Klebsiella pneumoniae): 6.25 mg/L (≈ 20.7 µM) | MIC (Staphylococcus aureus): 12.5 mg/L (≈ 41.5 µM) | MIC (Trichophyton benhamiae): > 50 mg/L | MIC (Aspergillus fumigatus): > 50 mg/L | MIC (Enterococcus faecalis): 12.5 mg/L (≈ 41.5 µM) | MIC (Cryptococcus neoformans): 25 mg/L (≈ 83 µM) | MIC (Sporothrix schenckii): > 50 mg/L | MIC (Escherichia coli): 12.5 mg/L (≈ 41.5 µM) | MIC (Candida parapsilosis): 50 mg/L (≈ 166 µM) | MIC (Candida albicans): > 50 mg/L

CC(C)N(C1=C(O)C(=O)c2ccccc2C1=O)C(C)C
MIC (Pseudomonas aeruginosa): 50 mg/L (≈ 183 µM) | MIC (Klebsiella pneumoniae): > 50 mg/L | MIC (Staphylococcus aureus): > 50 mg/L | MIC (Enterococcus faecalis): > 50 mg/L | MIC (Escherichia coli): > 50 mg/L

COC(=O)C(C)/N=C1\C=C(O)c2ccccc2C1=O (centres undefined)
MIC (Pseudomonas aeruginosa): > 50 mg/L | MIC (Klebsiella pneumoniae): 25 mg/L (≈ 96.4 µM) | MIC (Staphylococcus aureus): > 50 mg/L | MIC (Enterococcus faecalis): > 50 mg/L | MIC (Escherichia coli): > 50 mg/L

CC(C)N(C1=CC(=O)c2c(O)ccc(O)c2C1=O)C(C)C
MIC (Trichophyton benhamiae): 50 mg/L (≈ 173 µM) | MIC (Aspergillus fumigatus): > 50 mg/L | MIC (Cryptococcus neoformans): > 50 mg/L | MIC (Sporothrix schenckii): > 50 mg/L | MIC (Candida albicans): > 50 mg/L

OC(Cn1cncn1)(Cn1cncn1)c1ccc(F)cc1F [FLUCONAZOLE]
MIC (Trichophyton benhamiae): 0.5 mg/L (≈ 1.63 µM) | MIC (Aspergillus fumigatus): 2 mg/L (≈ 6.53 µM) | MIC (Cryptococcus neoformans): 1 mg/L (≈ 3.27 µM) | MIC (Sporothrix schenckii): 2 mg/L (≈ 6.53 µM) | MIC (Candida parapsilosis): 2 mg/L (≈ 6.53 µM) | MIC (Candida albicans): 1 mg/L (≈ 3.27 µM)

O=C1C(=O)c2ccccc2C(O)=C1Sc1ncc[nH]1
MIC (Pseudomonas aeruginosa): > 50 mg/L | MIC (Klebsiella pneumoniae): > 50 mg/L | MIC (Staphylococcus aureus): 50 mg/L (≈ 184 µM) | MIC (Trichophyton benhamiae): > 50 mg/L | MIC (Aspergillus fumigatus): > 50 mg/L | MIC (Enterococcus faecalis): 25 mg/L (≈ 91.8 µM) | MIC (Cryptococcus neoformans): 50 mg/L (≈ 184 µM) | MIC (Sporothrix schenckii): > 50 mg/L | MIC (Escherichia coli): > 50 mg/L | MIC (Candida parapsilosis): > 50 mg/L | MIC (Candida albicans): > 50 mg/L

COC(=O)C(CCSC)/N=C1/C(=O)c2ccccc2C(O)=C1O (centres undefined)
MIC (Pseudomonas aeruginosa): > 50 mg/L | MIC (Klebsiella pneumoniae): > 50 mg/L | MIC (Staphylococcus aureus): > 50 mg/L | MIC (Trichophyton benhamiae): 12.5 mg/L (≈ 37.3 µM) | MIC (Aspergillus fumigatus): 12.5 mg/L (≈ 37.3 µM) | MIC (Enterococcus faecalis): 25 mg/L (≈ 74.5 µM) | MIC (Cryptococcus neoformans): 12.5 mg/L (≈ 37.3 µM) | MIC (Sporothrix schenckii): 25 mg/L (≈ 74.5 µM) | MIC (Escherichia coli): > 50 mg/L | MIC (Candida parapsilosis): 25 mg/L (≈ 74.5 µM) | MIC (Candida albicans): 12.5 mg/L (≈ 37.3 µM)

NYSTATIN
MIC (Cryptococcus neoformans): 3.5 mg/L | MIC (Sporothrix schenckii): 13.2 mg/L | MIC (Candida albicans): 7.8 mg/L

NC[C@H]1O[C@H](O[C@H]2[C@H](O)[C@@H](O[C@H]3O[C@H](CO)[C@@H](O)[C@H](N)[C@H]3O)[C@H](N)C[C@@H]2N)[C@H](N)C[C@@H]1O [TOBRAMYCIN]
MIC (Pseudomonas aeruginosa): 4 mg/L (≈ 8.56 µM) | MIC (Klebsiella pneumoniae): 1 mg/L (≈ 2.14 µM) | MIC (Staphylococcus aureus): 0.25 mg/L (≈ 0.535 µM) | MIC (Enterococcus faecalis): 32 mg/L (≈ 68.4 µM) | MIC (Escherichia coli): 0.5 mg/L (≈ 1.07 µM)
